The values that follow come from patent US11173144B2, “Adrenergic receptor modulating compounds and methods of using the same” (The Board of Trustees of the Leland Stanford Junior …, priority 2016, dated 2021).

Where two headings read alike, the source gives them in different places.

In data set [1] the target is T1, ADRB1 (Homo sapiens (Human), UniProt P08588). The data set is described as follows: cAMP assay (homogenous time-resolved fluorescence) in HEK-293 cells stably expressing human recombinant ADRB1. Type of data set: cell-based. To be noted: for Emax: HEK293, 0.5 h, percent efficacy compared to the maximum response achieved with isoproterenol, read-out: cAMP pathway % Iso max. How it is done:
Pharmacological effects of compounds at the cAMP pathway mediated by ADRB1 are evaluated by measuring cAMP production using the homogenous time-resolved fluorescence detection method with HEK-293 cells stably expressing human recombinant ADRB1. Briefly, cells are suspended in HBSS buffer completed with 20 mM HEPES (pH 7.4) and 500 μM IBMX (3-isobutyl-1-methylxanthine) and distributed at a density of 3×10^3 cells/well. […] The results are expressed as a percent of the maximum efficacy achieved with isoproterenol. Pharmacological effects of compounds at the cAMP pathway mediated by ADRB2 and ADRB3 are measured as described above using CHO cells stably expressing human recombinant ADRB2 and human SK-N-MC neurotumor cells endogenously expressing ADRB3, respectively.
After 30 minute incubation with compounds, the cells are lysed and the fluorescence donor (Europium-chelated-labeled cAMP tracer; Eu-cAMP tracer) and fluorescence acceptor (cAMP-specific monoclonal antibodies labeled with the ULight™ dye) are added. […] The results are expressed as a percent of the control response to 10 μM isoproterenol. For subtype selectivity determination, same procedure is performed using Chinese hamster ovary (CHO) cells stably expressing human β2-adrenergic receptors or SK-N-MC human neuroblastoma cell line expressing β3-adrenergic receptors.
ADRB1 EC50 from functional assay (nM)^a, Determined using the homogenous time-resolved fluorescence detection method with HEK-293 cells stably expressing human recombinant ADRB1. ADRB2 IC50 from binding assay(nM)^b, Determined using the Tag-lite Adrenoceptor Beta2 receptor ligand binding assay.

The target in data set [2] is T1, ADRB1. The data set is described as follows: β-arrestin assay (PathHunter enzyme fragment complementation, CHO-K1-ADRB1 cells). The format is cell-based. To be noted: for β-arrestin pathway % Iso max: percent efficacy compared to the maximum response achieved with isoproterenol; for concentration-dependent response at the β-arrestin pathway: up to 30 μM. How it is done: Pharmacological activity of compounds in the β-arrestin pathway mediated by ADRB1 are evaluated using an enzyme fragment complementation method with a β-galactosidase functional reporter. An engineered CHO-K1-ADRB1 PathHunter cell line (DiscoveRx) is used in the assay. In this cell line, enzyme acceptor (β-galactosidase fragment) is fused to β-arrestin and enzyme donor (β-galactosidase fragment) is fused to the ADRB1. Thus, activation of the ADRB1 stimulates binding of β-arrestin to the ProLink-tagged ADRB1 and forces complementation of the two enzyme fragments, resulting in the formation of an active β-galactosidase enzyme. Briefly, CHO-K1-ADRB1 PathHunter cell lines are plated in a total volume of 20 μL cell plating reagent (DiscoveRx, 93-0563R0A) at a density of 2,500 cells/well into 384 well microplates and incubated overnight at 37° C. in 5% CO2. […] Chemiluminescent signal is then read with a PerkinElmer Envision™ instrument. The results are expressed as a percent of the maximum efficacy achieved with isoproterenol.
Effects of compounds on β-arrestin signaling pathways are determined using CHO cells stably expressing human β1-adrenergic receptors or human β2-adrenergic receptors with PathHunter® β-Arrestin GPCR assay system (DiscoveRx). In this system, adrenergic receptor is fused in frame with the small enzyme fragment ProLink™ and co-expressed in cell stably expressing at fusion protein of β-arrestin and the larger, N-terminal deletion mutant of β-galactosidase enzyme. Activation of the adrenergic receptor stimulates binding of β-arrestin to the ProLink-tagged receptor and forces complementation of the two enzyme fragments, resulting in the formation of an active β-gal enzyme. This interaction leads to an increase in enzyme activity that can be measured using chemiluminescent detection reagents. The effects of compounds on β-arrestin signaling pathways are determined 90 minutes after incubating the cells with the test compounds.

Data set [3] has as its target ADRB2 (Homo sapiens (Human), UniProt P07550). The data set is described as follows: Tag-lite Adrenoceptor Beta2 receptor ligand binding assay. Conditions: Table 7; read-out: ADRB2 IC50 from binding assay. How it is done:
The subtype selective activity of some compounds of interest was assessed for adrenergic receptor beta 1 (ADRB1) versus adrenergic receptor beta 2 (ADRB2). ADRB1 EC50 from functional assay (nM)^a, Determined using the homogenous time-resolved fluorescence detection method with HEK-293 cells stably expressing human recombinant ADRB1. ADRB2 IC50 from binding assay(nM)^b, Determined using the Tag-lite Adrenoceptor Beta2 receptor ligand binding assay.

For data set [4], the system named is C57BI/6J female mice. Put plainly: 24 day administration, lung and heart weight and fibrosis. The format is in vivo. To be noted: 10 mg/kg for 24 days. How it is done:
C57BI/6J female mice were administered with isoproterenol, KSN01-01-15, or KSN01-01-18 at 10 mg/kg for 24 days. After 24 days of treatment, mice were sacrificed, and lung and heart weight were measured. Hearts were then fixed in 10% formalin, and stained with Masson trichrome for evaluation of fibrosis.

Setting [5] is: Table 4, read-out: cAMP pathway ADRB1 EC50.
The mark [6] stands for this setting: Table 4, read-out: β-arrestin pathway ADRB1 EC50.
The mark [7] stands for this setting: Table 7, read-out: ADRB1 EC50 from functional assay.
The mark [8] stands for this setting: Table 3, read-out: cAMP pathway ADRB1 EC50.

Sequence of ADRB2 (P07550 whole entry): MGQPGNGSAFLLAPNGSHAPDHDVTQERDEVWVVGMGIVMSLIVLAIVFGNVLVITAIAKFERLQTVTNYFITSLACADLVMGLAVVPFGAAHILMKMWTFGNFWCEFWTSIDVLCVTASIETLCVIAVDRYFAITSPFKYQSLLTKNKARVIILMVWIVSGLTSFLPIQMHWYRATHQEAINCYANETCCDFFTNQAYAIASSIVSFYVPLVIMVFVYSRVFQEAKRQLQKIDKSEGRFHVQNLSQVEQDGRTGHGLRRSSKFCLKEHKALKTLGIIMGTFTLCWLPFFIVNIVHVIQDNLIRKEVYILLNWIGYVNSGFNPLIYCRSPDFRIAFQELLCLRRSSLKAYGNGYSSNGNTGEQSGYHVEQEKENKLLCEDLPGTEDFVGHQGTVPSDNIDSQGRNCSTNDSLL
T1 sequence (P08588 whole entry): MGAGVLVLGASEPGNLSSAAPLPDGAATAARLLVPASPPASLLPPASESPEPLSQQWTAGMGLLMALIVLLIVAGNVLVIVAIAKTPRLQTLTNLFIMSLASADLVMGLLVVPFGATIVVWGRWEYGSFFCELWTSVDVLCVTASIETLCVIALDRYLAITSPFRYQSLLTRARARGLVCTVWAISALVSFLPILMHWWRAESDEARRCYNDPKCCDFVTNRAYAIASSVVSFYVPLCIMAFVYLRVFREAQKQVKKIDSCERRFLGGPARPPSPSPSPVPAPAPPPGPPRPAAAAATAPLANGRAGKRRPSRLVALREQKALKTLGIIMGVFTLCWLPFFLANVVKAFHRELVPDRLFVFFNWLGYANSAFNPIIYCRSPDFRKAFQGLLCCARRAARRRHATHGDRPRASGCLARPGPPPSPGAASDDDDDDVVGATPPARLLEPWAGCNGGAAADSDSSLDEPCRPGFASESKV

On to `O=C(CCNC[C@H](O)COc1ccc(O)cc1)N1CCOCC1` [Compound 46], for which the Emax in data set [1] (Table 4) came out at 73.9 ± 10.2%. Moreover, the EC50 in data set [1] (setting [5]) was in the range of 100 to 1000 nM; in data set [2] (setting [6]), 10 to 100 nM. For the same compound, the “β-arrestin pathway % Iso max” value in data set [2] (Table 4) was 13.7%.

Regarding `COc1ccccc1CC(C)NC[C@H](O)COc1cccc2[nH]nc(C)c12` (stereo partly drawn) [Compound 72], the EC50 in data set [1] is 0.8 nM. Besides, the IC50 in data set [3] came out at 0.009 nM.

As for `Cc1n[nH]c2cccc(OC[C@@H](O)CNCCc3ccccc3C(F)(F)F)c12` [Compound 69], in data set [1] (setting [7]), the EC50 came out at 1 nM. Besides, in data set [3], the half-inhibitory concentration (IC50) was 0.048 nM.

As for `COc1ccccc1OCCNC[C@H](O)COc1cccc2[nH]nc(C)c12` [Compound 52], the concentration giving a half-maximal response (EC50) in data set [1] (setting [7]) came out at 9.2 nM. In data set [3], the concentration for half-maximal inhibition (IC50) is 0.024 nM.

As for `COCC(C)(C)NC[C@H](O)COc1cccc2[nH]nc(C)c12` [Compound 90], the EC50 in data set [1] (setting [7]) amounted to 3.4 nM. Besides, the half-maximal inhibitory concentration (IC50) in data set [3] was determined as 0.019 nM.

Take `COc1ccc(CCNCC(O)COc2ccc(O)c(O)c2)cc1OC` (stereo not drawn) [Compound 50]: the “agonistic activity on the ADRB1-mediated cAMP pathway” value in data set [1] was “full agonistic activity”. Also, the results for the EC50 in data set [1] (setting [5]), in data set [2] (setting [6]) and in data set [2] (read-out: EC50 at the β-arrestin pathway via ADRB1) were 1 to 10 nM, 10 to 100 nM and 32.2 nM, respectively. Besides, the “efficacy at the β-arrestin pathway compared to the full agonist isoproterenol” value in data set [2] is recorded as 36.5%. The “β-arrestin pathway % Iso max” value in data set [2] (Table 4) stood at 36.5%.

In the case of `O=C(NCCNC[C@H](O)COc1ccc(O)cc1)N1CC(CO)C1` [Compound 48], in data set [1] (Table 4), the Emax was 40.1 ± 3.9%. Also, the “concentration-dependent response at the β-arrestin pathway” value in data set [2] is “did not produce concentration-dependent response up to 30 μM”.

Regarding `O=C(CCCNC[C@H](O)COc1ccc(O)cc1)N1CCOCC1` [Compound 45], the Emax in data set [1] (Table 4) was determined as 71.9 ± 1.3%. Moreover, the values for the half-maximal effective concentration (EC50) in data set [1] (setting [5]) and in data set [2] (setting [6]) were 10 to 100 nM and 100 to 1000 nM, respectively. The “β-arrestin pathway % Iso max” value in data set [2] (Table 4) is 18.6%.

Take `O=C(NCCNC[C@H](O)COc1ccc(O)cc1)N1CC(O)C1` [Compound 47]: the Emax in data set [1] (Table 4) came out at 42 ± 2.4%. Besides, the EC50 in data set [1] (setting [5]) was 100 to 1000 nM. Besides, the “concentration-dependent response at the β-arrestin pathway” value in data set [2] was “did not produce concentration-dependent response up to 30 μM”.

Take `Cc1n[nH]c2cccc(OC[C@@H](O)CNC(C)(C)COc3ccccn3)c12` [Compound 86]: the 50% effective concentration (EC50) in data set [1] (setting [7]) was 44.7 nM. Besides, the IC50 in data set [3] worked out at 0.144 nM.

For the compound `N#Cc1cc(OC[C@@H](O)CNCCNC(=O)N2CCOCC2)ccc1O` [Compound 29], the 50% effective concentration (EC50) in data set [1] (setting [8]) was 1 to 10 nM.

For the compound `COc1ccc(CCOCCNC[C@H](O)COc2ccc(O)cc2)cc1OC` [Compound 44], in data set [1] (Table 4), the Emax was 60.2 ± 9.9%. The EC50 in data set [1] (setting [5]) and in data set [2] (setting [6]) was 100 to 1000 nM each time. Further, the “β-arrestin pathway % Iso max” value in data set [2] (Table 4) stood at 14%.

In the case of `Cc1n[nH]c2cccc(OC[C@@H](O)CNC(C)(C)C)c12` [Compound 75], the EC50 in data set [1] (setting [7]) turned out to be 3.5 nM. Further, the IC50 in data set [3] stood at 0.065 nM. For the same compound, in data set [4], the “fibrotic changes in heart and heart weight” value is “did not induce these changes”; the “fibrotic changes in lung and lung weight” value is listed as “did not induce these changes”; the “morphological changes in heart” value is “did not induce these changes”.

Turning to `Cc1n[nH]c2cccc(OC[C@@H](O)CNCCOc3ccccn3)c12` [Compound 87], in data set [1] (setting [7]), the 50% effective concentration (EC50) came to 5 nM. Also, in data set [3], the half-inhibitory concentration (IC50) was 0.23 nM.

`COc1ccc(OCCNC[C@H](O)COc2cccc3[nH]nc(C)c23)cc1OC` [Compound 55]: the EC50 in data set [1] (setting [7]) came to 35.4 nM. In addition, the IC50 in data set [3] was found to be 0.38 nM.

With `O=C(NCCNC[C@H](O)COc1cc(F)c(O)cc1F)N1CCOCC1` [Compound 28], the Emax in data set [1] (Table 3) was determined as 21.5 ± 0.5%. The EC50 in data set [1] (setting [8]) lay within 1 to 10 nM.
